From patent publication US20130295579A1, “METHOD FOR PREPARING INDUCED PLURIPOTENT STEM CELLS AND MEDIUM USED FOR PREPARING INDUCED PLURIPOTENT STEM CELLS” (SHANGHAI INSTITUTE OF MATERIA MEDICA, CHINESE ACADEMY OF …, priority 2010, published 2013)
“Also recorded” adds a separate entry of the source.

What was measured:
Format in all cases: cell-based
[1] = system: OG2 mouse embryonic fibroblasts; assay: Four-factor (Oct4, Sox2, Klf4, c-Myc) iPS induction, counting of Oct-GFP+ colonies by fluorescence microscope; conditions: four factors; for number of Oct-GFP+ colonies per well: 96-well plate
Description: Retrovirus were produced by transfecting plat-E cells with pMXs retroviral vectors containing the cDNAs of mouse Oct4, Sox2, Klf4 and c-Myc (purchased from Addgene) using Fugene HD (Roche) according to the manufacturer's protocol. After 48 hours, virus-containing supernatants were collected and filtered. The filtered supernatant was supplemented with 8 mg/L of polybrene, and then was used to infect mouse embryonic fibroblasts. The day when adding virus containing supernatants is counted as “day 0”. The fibroblasts infected with the virus were cultured in the mES medium, and iPS colonies were picked from day 14 to the day 18 after infection (four-factor infection experiment) or from day 20 to day 24 after infection (three-factor infection experiment), based on the expression of Oct-GFP and the typical morphology of stem cells.
(§1) The main method for calculating the reprogramming efficiency is the counting of the Oct-GFP^+ cells, including: 1. Using flow cytometry to determine the percentage of Oct-GFP^+ cells in the cell culture, which were infected with four factors for 10 to 12 days or with three factors for 14 to 16 days, or 2. directly counting the Oct-GFP^+ colonies in the wells by using fluorescence microscope.
a. Same volumes of the viruses carrying Oct4, Sox2, Klf4 or c-Myc were mixed and added to a total of 180,000 OG2 mouse embryonic fibroblasts in one well of a 6-well plate and cells were cultured in DMEM medium supplemented with 10% fetal bovine serum at 37° C. and 5% CO2. The day of viral infection was counted as “day 0”. On day 2, cells were trypsinized and resuspended in the mES medium, and then seeded at a density of 5,000 cells per well onto a 96-well plate pre-seeded with irradiated mouse embryonic fibroblast feeders. The mES medium supplemented with different concentrations of LiCl (0.6 mM, 1.2 mM, 2.5 mM, 5 mM, 10 mM, 20 mM and 40 mM) were used from day 3. On day 6, the medium was replaced with KSR medium supplemented with different concentrations of LiCl (0.6 mM, 1.2 mM, 2.5 mM, 5 mM, 10 mM, 20 mM and 40 mM). On day 8, the medium was replaced with KSR medium again.
b. Using the method described in step a, from day 8, Oct-GFP^+ colonies were observed and counted under an inverted fluorescence microscope every day, and pictures were also taken with a fluorescence microscope. FIG. 2A was representative images of wells in the 96-well plate on day 10, in which there were more GFP^+ colonies in 10 mM LiCl treated well than in untreated well. […] On day 8, GFP^+ colony could barely be observed in control wells, while approximately 10 GFP^+ colonies could be observed in 10 mM LiCl treated wells. On day 10, approximately 20 GFP^+ colonies could be observed in 10 mM LiCl treated wells, with induction efficiency 5 to 6 times of that of control wells'.

[2] = system: OG2 mouse embryonic fibroblasts; assay: Four-factor iPS induction, percentage of Oct-GFP+ cells by flow cytometry; conditions: four factors, 10 mM LiCl, day 12, three independent experiments
Description: (§2) Retrovirus were produced by transfecting plat-E cells with pMXs retroviral vectors containing the cDNAs of mouse Oct4, Sox2, Klf4 and c-Myc (purchased from Addgene) using Fugene HD (Roche) according to the manufacturer's protocol. After 48 hours, virus-containing supernatants were collected and filtered. The filtered supernatant was supplemented with 8 mg/L of polybrene, and then was used to infect mouse embryonic fibroblasts. The day when adding virus containing supernatants is counted as “day 0”. […]
as §1
(§3) a. […] The day of viral infection was counted as “day 0”. […]
c. Using the method described in step a, on day 12, cells were trypsinized and percentage of Oct-GFP^+ cells was determined by using flow cytometry. […]

[3] = system: OG2 mouse embryonic fibroblasts; assay: Three-factor iPS induction, percentage of Oct-GFP+ cells by flow cytometry; conditions: three factors, 10 mM LiCl, day 16
Description: as §2, §1, §3
c. Using the method described in step a, on day 16, cells were trypsinized and the percentage of Oct-GFP^+ cells was determined by using flow cytometry.

[4] = system: OG2 mouse embryonic fibroblasts; assay: Three-factor (Oct4, Sox2, Klf4) iPS induction, counting of Oct-GFP+ colonies by fluorescence microscope; conditions: three factors, day 14
Description: as §2, §1, §3
b. Using the method described in step a, from day 12, Oct-GFP^+ colonies were observed and counted under an inverted fluorescence microscope every day, and pictures were also taken with a fluorescence microscope.

SMILES: [Cl-].[Li+] [LiCl, lithium chloride]
- number of Oct-GFP+ colonies per well ([1]; 10 mM LiCl, day 8 after infection): approximately 10
- induction efficiency relative to control wells (colony count) ([1]; 10 mM LiCl, day 10): 5 to 6 times
- number of Oct-GFP+ colonies per well ([1]; 10 mM LiCl, day 10 after infection): approximately 20
- most effective dose of LiCl (number of positive colonies) ([1]; tested 0.6-40 mM): 10 mM
- induction efficiency increase versus wells without treatment (flow cytometry) [2]: 5 to 6 times
- increase of percentage of Oct-GFP+ cells versus control groups [3]: approximately 60 times
- percentage of Oct-GFP+ cells [3]: 14.5%
- induction efficiency of iPS cells versus control groups (colony count) ([4]; 5 mM or 10 mM LiCl): enhanced; also recorded: significantly improved
- induction efficiency increase versus control groups (colony count) ([4]; 10 mM LiCl): approximately 7 times
